Legend:
Assay type in all cases: ADME, cell membranes
Conditions in all cases: pH 7.4, 5 h
[1] = Apparent permeability of the compound across bacterial inner membrane mimic PC-phospholipids in PBS buffer assessed as membrane retention at pH 7.4 incubated for 5 hrs in presence of 1,3-bis(8-carbamimidamidooctyl)-1,3-bis({8-[N'-(cyclopropylmethyl)carbamimidamido]octyl})urea by PAMPA based UV-Vis spectrophotometric analysis
[2] = Apparent permeability of the compound across bacterial inner membrane mimic PC-phospholipids in PBS buffer assessed as membrane retention at pH 7.4 incubated for 5 hrs by PAMPA based UV-Vis spectrophotometric analysis
[3] = (§1) Apparent permeability of the compound across bacterial inner membrane mimic pure POPG in PBS buffer assessed as membrane retention at pH 7.4 incubated for 5 hrs by PAMPA based UV-Vis spectrophotometric analysis
[4] = (§2) Apparent permeability of the compound across bacterial inner membrane mimic POPE/POPG (6:4) in PBS buffer assessed as membrane retention at pH 7.4 incubated for 5 hrs by PAMPA based UV-Vis spectrophotometric analysis
[5] = (§3) Apparent permeability of the compound across bacterial inner membrane mimic PC-phospholipids in PBS buffer assessed as membrane retention at pH 7.4 incubated for 5 hrs in presence of {8-[N'(cyclopropylmethyl)carbamimidamido]octyl}urea trifluoroacetate salt by PAMPA based UV-Vis spectrophotometric analysis
[6] = Apparent permeability of the compound across bacterial inner membrane mimic PC-phospholipids in PBS buffer assessed as membrane retention at pH 7.4 incubated for 5 hrs in presence of 1,1-bis({6-[N'-(cyclopropylmethyl)carbamimidamido]hexyl})-3-{8-[N'-(cyclopropylmethyl)carbamimidamido]octyl}-3-octylurea by PAMPA based UV-Vis spectrophotometric analysis
[7] = as §3, with “1,3-bis(8-aminooctyl)-1,3-bis(8- carbamimidamidooctyl)urea” for “{8-[N'(cyclopropylmethyl)carbamimidamido]octyl}urea”
[8] = as §3, with “1,3,3-tris(8-carbamimidamidooctyl)-1-{8-[N'-(cyclopropylmethyl)carbamimidamido]octyl}urea” for “{8-[N'(cyclopropylmethyl)carbamimidamido]octyl}urea”
[9] = as §1, with “hrs in presence of 1,3-bis(8-carbamimidamidooctyl)-1,3-bis({8-[N'-(cyclopropylmethyl)carbamimidamido]octyl})urea” for “hrs”
[10] = (§4) Apparent permeability of the compound across bacterial inner membrane mimic pure POPG in PBS buffer assessed as membrane retention at pH 7.4 incubated for 5 hrs in presence of {8-[N'(cyclopropylmethyl)carbamimidamido]octyl}urea trifluoroacetate salt by PAMPA based UV-Vis spectrophotometric analysis
[11] = as §1, with “hrs in presence of 1,1-bis({6-[N'-(cyclopropylmethyl)carbamimidamido]hexyl})-3-{8-[N'-(cyclopropylmethyl)carbamimidamido]octyl}-3-octylurea” for “hrs”
[12] = as §4, with “1,3-bis(8-aminooctyl)-1,3-bis(8- carbamimidamidooctyl)urea” for “{8-[N'(cyclopropylmethyl)carbamimidamido]octyl}urea”
[13] = as §4, with “1,3,3-tris(8-carbamimidamidooctyl)-1-{8-[N'-(cyclopropylmethyl)carbamimidamido]octyl}urea” for “{8-[N'(cyclopropylmethyl)carbamimidamido]octyl}urea”
[14] = as §2, with “hrs in presence of 1,3-bis(8-carbamimidamidooctyl)-1,3-bis({8-[N'-(cyclopropylmethyl)carbamimidamido]octyl})urea” for “hrs”
[15] = as §3, with “POPE/POPG (6:4)” for “PC-phospholipids”
[16] = as §2, with “hrs in presence of 1,1-bis({6-[N'-(cyclopropylmethyl)carbamimidamido]hexyl})-3-{8-[N'-(cyclopropylmethyl)carbamimidamido]octyl}-3-octylurea” for “hrs”
[17] = as §2, with “hrs in presence of 1,3-bis(8-aminooctyl)-1,3-bis(8- carbamimidamidooctyl)urea trifluoroacetate salt” for “hrs”
[18] = as §2, with “hrs in presence of 1,3,3-tris(8-carbamimidamidooctyl)-1-{8-[N'-(cyclopropylmethyl)carbamimidamido]octyl}urea trifluoroacetate salt” for “hrs”

R% [1]: 12.6%
R% [2]: 3.2%
R% [3]: 4.5%
R% [4]: 3.3%
R% [5]: 12.8%
R% [6]: 0%
R% [7]: 15.8%
R% [8]: 8.1%
R% [9]: 13.5%
R% [10]: 13.4%
R% [11]: 14.7%
R% [12]: 17.1%
R% [13]: 14.6%
R% [14]: 12.6%
R% [15]: 17.5%
R% [16]: 16.7%
R% [17]: 16.5%
R% [18]: 19%
Compound: Cn1c(=O)c2c(ncn2C)n(C)c1=O [CAFFEINE]

Source: ChEMBL document CHEMBL5154741, “Antibacterial alkylguanidino ureas: Molecular simplification approach, searching for membrane-based MoA” (Eur J Med Chem, 2022)
